{"source": "patent US8389572B2", "about": "“Therapeutic delivery of carbon monoxide” (hemoCORM Limited, priority 2006, dated 2013)", "origin": "cited, not measured here", "details": "disclosed in WO 02/092075 and WO 2004/045598"}
{"smiles": "F[P-](F)(F)(F)(F)F.O=[C]=[Fe](=[C]=O)(=[C]=O)[CH]1C=CC=C1", "note": "[[CpFe(CO)3]PF6]", "values": [{"measurement": "precipitate during release of CO", "result": "produced a precipitate during release of CO"}, {"measurement": "solubility", "setting": "solvent", "result": "soluble in dimethylsulphoxide (DMSO)"}]}
